According to patent US11964949B2, “Substituted phenyloxazolidinones for antimicrobial therapy” (priority 2015, dated 2024):
Values after ≈ are worked out from the molar mass of the structure shown. Like-named read-outs stand apart in the source and are kept apart here.

Legend:
[1] = test system: Mycobacterium tuberculosis H37Rv; test: In vitro assay for antimicrobial susceptibility (microplate Alamar blue, MIC); assay type: cell-based; settings: Mycobacterium tuberculosis, read-out: MIC (μg/mL) against H37Rv
[2] = test system: mitochondrial protein synthesis (MPS) in H9C2 cells; test: In vitro assay for MPS inhibition (COX-1 / SDH-A ELISA in H9C2 cells); assay type: cell-based, rat; settings: Rattus norvegicus, read-out: IC50 (μM) MPS inhibition
[3] = M. tuberculosis H37Rv, 7H9 broth, Alamar blue
[4] = 120 h, H9C2 cells, 5 days incubation

| SMILES | MIC [1, 3] [µg/mL] | IC50 [2, 4] [µM] | MIC ([1]; H37RV) [µg/mL] | IC50 ([2]; H9c2, 120 h) [µM] |
| --- | --- | --- | --- | --- |
| O=C(NC[C@H]1CN(c2ccc(N3CCCSCCC3)c(F)c2)C(=O)O1)c1ccco1 [OTB-117, (S)—N-[[3-(3-Fluoro-4-(1,5-thiazocan-5-yl)phenyl)-2-oxo-oxazolidin-5-yl]methyl]furan-2-carboxamide] | 0.665 (≈ 1.53 µM) | 56.3 | – | – |
| O=C1O[C@@H](Cn2cncn2)CN1c1ccc(N2CCCSCC2)c(F)c1 [OTB-119, (R)-5-[(1H-1,2,4-Triazol-1-yl)methyl]-3-[3-fluoro-4-(1,4-thiazepan-4-yl)phenyl]oxazolidin-2-one] | 0.456 (≈ 1.21 µM) | > 100 | – | – |
| CCCCS(=O)(=O)NC[C@H]1CN(c2ccc(N3CCCSCCC3)c(F)c2)C(=O)O1 [OTB-120, (R)—N-[[3-(3-Fluoro-4-(1,5-thiazocan-5-yl)phenyl)-2-oxo-oxazolidin-5-yl]methyl]butane-1-sulfonamide] | 3.88 (≈ 8.44 µM) | 7.27 | – | – |
| CC(C)(C)C(=O)NC[C@H]1CN(c2ccc(N3CCCSCCC3)c(F)c2)C(=O)O1 [OTB-121, (S)—N-[[3-(3-Fluoro-4-(1,5-thiazocan-5-yl)phenyl)-2-oxo-oxazolidin-5-yl]methyl]pivalamide] | 2.79 (≈ 6.58 µM) | 17.6 | – | – |
| CCCC(=O)OC[C@H]1CN(c2ccc(N3CCC[S+]([O-])CC3)c(F)c2)C(=O)O1 (stereo partly drawn) [OTB-126, [(5R)-3-[3-Fluoro-4-(1-oxido-1,4-thiazepan-4-yl)phenyl)-2-oxo-oxazolidin-5-yl]methyl butyrate] | 0.847 (≈ 2.05 µM) | 35.6 | – | – |
| O=C(NC[C@H]1CN(c2ccc(N3CCC[S+]([O-])CC3)c(F)c2)C(=O)O1)c1ccco1 (stereo partly drawn) [OTB-127, N-[[(5S)-3-(3-Fluoro-4-(1-oxido-1,4-thiazepan-4-yl)phenyl)-2-oxo-oxazolidin-5-yl]methyl]furan-2-carboxamide] | 1.23 (≈ 2.83 µM) | 10.2 | – | – |
| O=C1O[C@@H](Cn2ccnn2)CN1c1ccc(N2CCC[S+]([O-])CC2)c(F)c1 (stereo partly drawn) [OTB-137, (5R)-5-((1H-1,2,3-Triazol-1-yl)methyl)-3-(3-fluoro-4-(1-oxido-1,4-thiazepan-4-yl)phenyl)oxazolidin-2-one] | 0.277 (≈ 0.704 µM) | 7.64 | – | – |
| O=C1O[C@@H](Cn2nccn2)CN1c1ccc(N2CCC[S+]([O-])CC2)c(F)c1 (stereo partly drawn) [OTB-138, (5R)-5-((2H-1,2,3-Triazol-2-yl)methyl)-3-(3-fluoro-4-(1-oxido-1,4-thiazepan-4-yl)phenyl)oxazolidin-2-one] | 7.57 (≈ 19.2 µM) | > 100 | – | – |
| O=C1O[C@@H](Cn2cncn2)CN1c1ccc(N2CCC[S+]([O-])CC2)c(F)c1 (stereo partly drawn) [OTB-140, (5R)-5-((1H-1,2,4-Triazol-1-yl)methyl)-3-(3-fluoro-4-(1-oxido-1,4-thiazepan-4-yl)phenyl)oxazolidin-2-one] | 3.69 (≈ 9.39 µM) | > 100 | – | – |
| CC(=O)NC[C@H]1CN(c2ccc(N3CC4(COC4)C3)c(F)c2)C(=O)O1 [OTB-202, (S)—N-((3-(3-Fluoro-4-(2-oxa-6-azaspiro[3.3]heptan-6-yl)phenyl)-2-oxo-oxazolidin-5-yl)methyl)acetamide] | 0.6 to 1.2 (≈ 1.72 to 3.43 µM) | 17 to 29 | – | – |
| CC(=O)NC[C@H]1CN(c2ccc(N3C4CSCC3C4)c(F)c2)C(=O)O1 [OTB-227, N-(((5S)-3-(4-(3-Thia-6-azabicyclo[3.1.1]heptan-6-yl)-3-fluorophenyl)-2-oxo-oxazolidin-5-yl)methyl)acetamide] | – | – | 0.889 (≈ 2.43 µM) | 15.2 |
| O=C1O[C@@H](CO)CN1c1cc(F)c(N2CC3(COC3)C2)c(F)c1 [OTB-229, (R)-3-(3,5-Difluoro-4-(2-oxa-6-azaspiro[3.3]heptan-6-yl)phenyl)-5-(hydroxymethyl)oxazolidin-2-one] | 1.9 to 7.4 (≈ 5.82 to 22.7 µM) | > 100 | – | – |
| CC(=O)NC[C@H]1CN(c2cc(F)c(N3CC4(COC4)C3)c(F)c2)C(=O)O1 [OTB-230, (S)—N-((3-(3,5-Difluoro-4-(2-oxa-6-azaspiro[3.3]heptan-6-yl)phenyl)-2-oxo-oxazolidin-5-yl)methyl)acetamide] | 0.2 (≈ 0.544 µM) | 13 | – | – |
| COC(=O)NC[C@H]1CN(c2cc(F)c(N3CC4(COC4)C3)c(F)c2)C(=O)O1 [OTB-231, Methyl (S)-((3-(3,5-difluoro-4-(2-oxa-6-azaspiro[3.3]heptan-6-yl)phenyl)-2-oxo-oxazolidin-5-yl)methyl)carbamate] | 0.24 to 0.7 (≈ 0.626 to 1.83 µM) | 37 to 63 | – | – |
| CS(=O)(=O)NC[C@H]1CN(c2cc(F)c(N3CC4(COC4)C3)c(F)c2)C(=O)O1 [OTB-232, (R)—N-((3-(3,5-Difluoro-4-(2-oxa-6-azaspiro[3.3]heptan-6-yl)phenyl)-2-oxo-oxazolidin-5-yl)methyl)methanesulfonamide] | 1.5 to 4 (≈ 3.72 to 9.92 µM) | > 100 | – | – |
| O=C(NC[C@H]1CN(c2cc(F)c(N3CC4(COC4)C3)c(F)c2)C(=O)O1)C1CC1 [OTB-233, (S)—N-((3-(3,5-Difluoro-4-(2-oxa-6-azaspiro[3.3]heptan-6-yl)phenyl)-2-oxo-oxazolidin-5-yl)methyl)cyclopropanecarboxamide] | 0.36 to 1 (≈ 0.915 to 2.54 µM) | 8.4 to 50 | – | – |
| COC(=O)NC[C@H]1CN(c2ccc(N3[C@@H]4CC[C@H]3CSC4)c(F)c2)C(=O)O1 [OTB-237, Methyl (((S)-3-(4-((1R,5S)-3-thia-8-azabicyclo[3.2.1]octan-8-yl)-3-fluorophenyl)-2-Oxo-oxazolidin-5-yl)methyl)carbamate] | – | – | 0.03 to 0.11 (≈ 0.0759 to 0.278 µM) | 15 to 23 |
| O=C(NC[C@H]1CN(c2ccc(N3CC4(COC4)C3)c(F)c2)C(=O)O1)C1CC1 [OTB-238, (S)—N-((3-(3-Fluoro-4-(2-oxa-6-azaspiro[3.3]heptan-6-yl)phenyl)-2-oxo-oxazolidin-5-yl)methyl)cyclopropanecarboxamide] | 2 to 4 (≈ 5.33 to 10.7 µM) | 20 | – | – |
| O=C(NC[C@H]1CN(c2ccc(N3CC4(COC4)C3)c(F)c2)C(=O)O1)C1CCC1 [OTB-239, (S)—N-((3-(3-Fluoro-4-(2-oxa-6-azaspiro[3.3]heptan-6-yl)phenyl)-2-oxo-oxazolidin-5-yl)methyl)cyclobutanecarboxamide] | 2.1 to 3.8 (≈ 5.39 to 9.76 µM) | 19 to 67 | – | – |

| SMILES | MIC [1, 3] [µg/mL] | IC50 [2, 4] [µM] | MIC ([1]; H37RV) [µg/mL] | IC50 ([2]; H9c2, 120 h) [µM] |
| --- | --- | --- | --- | --- |
| O=C(NC[C@H]1CN(c2cc(F)c(N3CC4(COC4)C3)c(F)c2)C(=O)O1)C1CCC1 [OTB-240, (S)—N-((3-(3,5-Difluoro-4-(2-oxa-6-azaspiro[3.3]heptan-6-yl)phenyl)-2-oxo-oxazolidin-5-yl)methyl)cyclobutanecarboxamide] | 0.24 to 0.6 (≈ 0.589 to 1.47 µM) | 19 to 67 | – | – |
| O=C1O[C@@H](Cn2ccnn2)CN1c1ccc(N2CC3(CSC3)C2)c(F)c1 [OTB-241, (R)-5-((1H-1,2,3-Triazol-1-yl)methyl)-3-(3-fluoro-4-(2-thia-6-azaspiro[3.3]heptan-6-yl)phenyl)oxazolidin-2-one] | 0.116 (≈ 0.309 µM) | 19.8 | – | – |
| COC(=O)NC[C@H]1CN(c2cc(F)c(N3CC4(CSC4)C3)c(F)c2)C(=O)O1 [OTB-242, Methyl (S)-((3-(3,5-difluoro-4-(2-thia-6-azaspiro[3.3]heptan-6-yl)phenyl)-2-oxo-oxazolidin-5-yl)methyl)carbamate] | 0.02 to 0.06 (≈ 0.0501 to 0.15 µM) | 23 to 71 | – | – |
| O=C(NC[C@H]1CN(c2cc(F)c(N3CC4(CSC4)C3)c(F)c2)C(=O)O1)C1CC1 [OTB-243, (S)—N-((3-(3,5-Difluoro-4-(2-thia-6-azaspiro[3.3]heptan-6-yl)phenyl)-2-oxo-oxazolidin-5-yl)methyl)cyclopropanecarboxamide] | 0.03 (≈ 0.0733 µM) | 14 | – | – |
| O=C1O[C@@H](Cn2ccnn2)CN1c1cc(F)c(N2CC3(CSC3)C2)c(F)c1 [OTB-245, (R)-5-((1H-1,2,3-Triazol-1-yl)methyl)-3-(3,5-difluoro-4-(2-thia-6-azaspiro[3.3]heptan-6-yl)phenyl)oxazolidin-2-one] | 0.03 to 0.5 (≈ 0.0763 to 1.27 µM) | 25 to 35 | – | – |
| O=C1O[C@@H](Cn2ccnn2)CN1c1ccc(N2CC3(C2)C[S+]([O-])C3)c(F)c1 [OTB-247] | 1.2 to 1.4 (≈ 3.07 to 3.58 µM) | 10 | – | – |
| O=C(NC[C@H]1CN(c2cc(F)c(N3CC4(C3)C[S+]([O-])C4)c(F)c2)C(=O)O1)C1CCC1 [OTB-251] | 0.9 (≈ 2.05 µM) | 24 | – | – |
| O=C(NC[C@H]1CN(c2cc(F)c(N3CC4(C3)C[S+]([O-])C4)c(F)c2)C(=O)O1)C1CC1 [OTB-252] | 0.7 (≈ 1.65 µM) | 52 | – | – |
| COC(=O)NC[C@H]1CN(c2cc(F)c(N3CC4(C3)C[S+]([O-])C4)c(F)c2)C(=O)O1 [OTB-253] | 0.7 (≈ 1.69 µM) | 10 | – | – |
| O=C(NC[C@H]1CN(c2ccc(N3CC4(C3)C[S+]([O-])C4)c(F)c2)C(=O)O1)C1CC1 [OTB-255] | 1.9 (≈ 4.66 µM) | 10 | – | – |
| COC(=O)NC[C@H]1CN(c2ccc(N3CC4(C3)C[S+]([O-])C4)c(F)c2)C(=O)O1 [OTB-256] | 4 (≈ 10.1 µM) | 46 | – | – |
| O=C1O[C@@H](CO)CN1c1ccc(N2CC3(CSC3)C2)c(F)c1 [OTB-260, (R)-3-(3-Fluoro-4-(2-thia-6-azaspiro[3.3]heptan-6-yl)phenyl)-5-(hydroxymethyl)oxazolidin-2-one] | 1.49 (≈ 4.59 µM) | 30 | – | – |
| CS(=O)(=O)NC[C@H]1CN(c2ccc(N3CC4(CSC4)C3)c(F)c2)C(=O)O1 [OTB-260-2A] | 0.82 (≈ 2.04 µM) | > 100 | – | – |
| CS(=O)(=O)NC[C@H]1CN(c2ccc(N3CC4(C3)C[S+]([O-])C4)c(F)c2)C(=O)O1 [OTB-260-2B] | 0.49 (≈ 1.17 µM) | > 100 | – | – |
| CNC(=O)OC[C@H]1CN(c2ccc(N3CC4(CSC4)C3)c(F)c2)C(=O)O1 [OTB-260-4A] | – | > 100 | 0.39 (≈ 1.02 µM) | – |
| CNC(=O)OC[C@H]1CN(c2ccc(N3CC4(C3)C[S+]([O-])C4)c(F)c2)C(=O)O1 [OTB-260-4B] | – | > 100 | 20 (≈ 50.3 µM) | – |
| O=C1O[C@@H](Cn2nccn2)CN1c1ccc(N2CC3(CSC3)C2)c(F)c1 [OTB-260-5A] | 0.44 (≈ 1.17 µM) | > 100 | – | – |
| O=C1O[C@@H](Cn2nccn2)CN1c1ccc(N2CC3(C2)C[S+]([O-])C3)c(F)c1 [OTB-260-5B] | > 32 | > 100 | – | – |
| CC(=O)NC[C@H]1CN(c2ccc(N3CC4(CSC4)C3)c(F)c2)C(=O)O1 [OTB-261, (S)—N-((3-(3-Fluoro-4-(2-thia-6-azaspiro[3.3]heptan-6-yl)phenyl)-2-oxo-oxazolidin-5-yl)methyl)acetamide] | 0.12 (≈ 0.328 µM) | 2 | – | – |
